According to PMC8386105, “A mechanism-inspired UDP-N-acetylglucosamine pyrophosphorylase inhibitor” (RSC Chemical Biology, 2020):

Assays:
[1] = biological target: T1, UDP-N-acetylglucosamine pyrophosphorylase (AfUAP1) (Aspergillus fumigatus, UniProt Q4WAR0); test: HPAEC assay of UDP-GlcNAc formation by recombinant enzyme; assay type: biochemical
T1 construct: gene AFUA_7G02180
T1 sequence (Q4WAR0 1-509): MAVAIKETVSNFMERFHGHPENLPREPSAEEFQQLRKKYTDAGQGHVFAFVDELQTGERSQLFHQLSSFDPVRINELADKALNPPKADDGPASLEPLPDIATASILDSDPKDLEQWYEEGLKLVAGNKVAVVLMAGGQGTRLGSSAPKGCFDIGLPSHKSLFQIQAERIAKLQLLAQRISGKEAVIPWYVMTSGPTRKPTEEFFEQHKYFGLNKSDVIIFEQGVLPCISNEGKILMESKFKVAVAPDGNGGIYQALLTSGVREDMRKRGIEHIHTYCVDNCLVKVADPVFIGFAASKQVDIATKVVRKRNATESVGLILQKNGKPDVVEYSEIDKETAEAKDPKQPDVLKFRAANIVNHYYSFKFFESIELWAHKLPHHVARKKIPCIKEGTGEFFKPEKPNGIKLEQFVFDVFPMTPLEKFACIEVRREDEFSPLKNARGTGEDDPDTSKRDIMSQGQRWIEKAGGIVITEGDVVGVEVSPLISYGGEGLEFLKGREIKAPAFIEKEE

[2] = biological target: T1, UDP-N-acetylglucosamine pyrophosphorylase (AfUAP1)

Row | SMILES | IC50 [1] [µM] | X-ray crystal structure, 1.75 Å (PPi and Mg2+ soak) [2]
1 | O=c1ccn([C@@H]2O[C@H](COP(=O)(O)CP(=O)(O)OP(=O)(O)O)[C@@H](O)[C@H]2O)c(=O)[nH]1 [compound 5, meUTP] | 115 ± 40 | 
2 | O=P(O)(O)OP(=O)(O)O [pyrophosphate] |  | is tethered by interactions with positively charged residues, such as Arg141, Lys437 and Lys148
